Source: article PMC12525602, “Identification of Selective α-Glucosidase Inhibitors via Virtual Screening with Machine Learning” (Molecules, 2025)

Key:
α-glucosidase [1] = target: T1, α-glucosidase (Saccharomyces cerevisiae, UniProt P53341); assay: Fluorescence quenching experiment (Stern-Volmer); type: binding; details: for Kq (bimolecular quenching constant): given as number×10 with exponent 12; for Kd: Ka (binding constant)
T1 construct: purchased Sigma-Aldrich Co. (St. Louis, MI, USA)
Protocol: The fluorescence quenching experiment was modified somewhat based on previous studies. Fluorescence was determined by titrating α-glucosidase (1.0 mL, 2 U/mL) with different concentrations of inhibited solutions (1.0 mL, 0–200 mM) and left to equilibrate for 5 min. […] Fluorescence burst analysis was performed based on the Stern-Volmer (3) equation.(3) F0/F=1+Kqτ0Q=1+KsvQ
F and F0 are the fluorescence intensities with and without inhibitor, respectively, Ksv is the Stern-Volmer bursting constant, Kq is the bimolecular bursting constant, and [Q] is the concentration of inhibitor.
When the bursting mode conforms to static bursting, the binding constant Ka and the number of binding sites for each enzyme can be calculated from Equation (4).(4) logF0−F/F=logKa+nlogQ
Ka is the binding constant and n is the number of binding sites.
The thermodynamic parameters ∆H, ∆S, and ∆G denote the change in heat, entropy, and free energy, respectively.

α-glucosidase [2] = target: T1, α-glucosidase; assay: biochemical; type: biochemical
Protocol: To further investigate the inhibition kinetics of the candidate compounds, α-glucosidase activity was determined at different substrate concentrations. The Lineweaver-Burk expression method in Equation (1) was used to test the reaction of a series of compounds with the substrate pNαGP, and the values of maximum velocity (Vmax) and Michaelis-Menten constant (Km) were calculated.(1) 1/v=Km/Vmax1/[S]+1/Vmax where Vmax and Km are the maximum velocity of the enzyme and the Michaelis-Menten constant in the absence of inhibitor, respectively. [S] is the concentration of substrate and inhibitor.(2) Slope=Km/Vmax+Km/Vmax·KiI where v is the initial reaction rate, Vmax is the maximum initial reaction rate, [I] is the concentration of […], and Km is the Michaelis-Menten constant.

C57BL/6J mice = assay: In vivo starch digestion inhibition experiment (postprandial blood glucose); details: normal mice, 10 mg/kg by gavage, 2 g/kg starch, 0-120 min; p < 0.001 versus controls
Excerpt: After the in vitro validation, in order to further characterize the effect of the inhibitor on postprandial glycemic control, we performed in vivo characterization by gavage in mice. Eight-week-old male C57BL/6J mice (purchased from Beijing Huafukang Laboratory Animals, Beijing, China) were used for the experiments. The animal experimental procedures were approved by the Ethics Committee on Laboratory Animal Management and Welfare of Beijing Huafuqian Times Technology Co. Ltd. (Ethical Review Approval No. HYSD2023-04), and local and national ethical guidelines were strictly observed. All mice were placed in a controlled environment with a temperature of 25 °C, relative humidity of 60%, and a light/dark cycle of 12/12 h. Following overnight fasting, gastric intubation was performed on mice in the control group, acarbose group, […] group, […] group, […] group, and […] group. The control group received saline infusion to eliminate confounding factors during administration. […] The remaining groups each received a corresponding concentration (10 mg/kg) of the test compound dissolved in saline solution to evaluate inhibitor efficacy. 2 g/kg of starch was given after 5 min, and the […] at 0 min, 10 min, 20 min, 30 min, 40 min, 60 min, 90 min and 120 min.

α-glucosidase [3] = target: T1, α-glucosidase; assay: Synchronous fluorescence spectroscopy (RSQF); type: binding
Protocol: Changes in the microenvironment of tyrosine (Tyr) and tryptophan (Trp) residue fluorophores were detected simultaneously. The excitation and emission wavelength intervals were set to 15 nm and 60 nm, respectively, and the synchronized fluorescence spectra from 260 to 320 nm were determined. The synchronized fluorescence burst ratio (RSFQ) was calculated as follows:(7) RSQF=1−F/F0

α-amylase = target: T2, α-amylase (Sus scrofa, UniProt P00690); assay: In vitro α-amylase activity assay (G3-CNP, absorbance 405 nm); type: biochemical, porcine; design: inhibition of α-amylase: dose or concentration left out as unconfirmed; details: for inhibition of α-amylase: […] µM
T2 construct: α-amylase isolated from porcine pancreas; purchased Sigma-Aldrich Co. (St. Louis, MI, USA); host or cells: porcine pancreas
T2 sequence (P00690 16-511): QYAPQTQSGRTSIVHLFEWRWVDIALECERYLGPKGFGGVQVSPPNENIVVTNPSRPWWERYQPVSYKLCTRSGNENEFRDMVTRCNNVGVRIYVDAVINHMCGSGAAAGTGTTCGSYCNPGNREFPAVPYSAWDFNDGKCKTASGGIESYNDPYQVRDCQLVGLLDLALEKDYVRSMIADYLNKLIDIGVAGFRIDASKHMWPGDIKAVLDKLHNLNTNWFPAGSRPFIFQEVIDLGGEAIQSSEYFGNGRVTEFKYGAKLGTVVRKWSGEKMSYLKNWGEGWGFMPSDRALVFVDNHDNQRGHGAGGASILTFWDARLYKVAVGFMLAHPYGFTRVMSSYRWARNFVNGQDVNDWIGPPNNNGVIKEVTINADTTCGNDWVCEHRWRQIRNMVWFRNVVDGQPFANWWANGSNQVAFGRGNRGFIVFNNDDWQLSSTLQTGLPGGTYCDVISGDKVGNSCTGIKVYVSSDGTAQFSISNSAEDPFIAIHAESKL
Protocol: (§1) The inhibitors used in this study were purchased from the ChemDiv website. Unless otherwise stated, all other reagents used in this experiment were analytically pure reagents purchased from Sigma-Aldrich Co. (St. Louis, MI, USA).
The in vitro α-amylase activity assay was determined spectrophotometrically as previously described with only minor modifications. A phosphate-buffer solution at pH 6.8 was configured to obtain α-amylase 5 U/mL and 2-chloro-4-nitrophenyl α-D-maltotrioside (G3-CNP) 0.6 mM. […] Gradient dilution with phosphate-buffer solution was performed to obtain sample solutions of different concentrations.
(§2) The IC50 values of the tested compounds were calculated using nonlinear fitting (logit method).

α-glucosidase [4] = target: T1, α-glucosidase; assay: In vitro α-glucosidase activity assay (pNαGP, absorbance 405 nm); type: biochemical; details: for inhibition at 250 µM: read-out: inhibition of α-glucosidase
Protocol: as §1
The in vitro α-glucosidase activity assay was determined spectrophotometrically as previously described with only minor modifications. A phosphate-buffer solution at pH 6.8 was configured to obtain 0.5 U/mL of α-glucosidase and 0.6 mM of […] (pNαGP). […] Gradient dilution with phosphate-buffer solution was performed to obtain sample solutions of different concentrations. First, different concentrations of compounds (10 µL), enzyme solution (40 µL) and potassium phosphate buffer (100 µL) were pre-incubated in a 96-well plate for 10 min at 37 °C. Then, 50 µL of substrate (pNαGP, 0.6 mM) was added to each microtiter well and incubated for 20 min at 37 °C, and the absorbance at 405 nm was measured to detect the change in enzyme activity.
The enzyme inhibitory activity of the tested compounds was calculated as follows: α−glucosidase inhibition rate%=Abs control−Abs sample/Abs control×100
as §2

T1 sequence (P53341 whole entry): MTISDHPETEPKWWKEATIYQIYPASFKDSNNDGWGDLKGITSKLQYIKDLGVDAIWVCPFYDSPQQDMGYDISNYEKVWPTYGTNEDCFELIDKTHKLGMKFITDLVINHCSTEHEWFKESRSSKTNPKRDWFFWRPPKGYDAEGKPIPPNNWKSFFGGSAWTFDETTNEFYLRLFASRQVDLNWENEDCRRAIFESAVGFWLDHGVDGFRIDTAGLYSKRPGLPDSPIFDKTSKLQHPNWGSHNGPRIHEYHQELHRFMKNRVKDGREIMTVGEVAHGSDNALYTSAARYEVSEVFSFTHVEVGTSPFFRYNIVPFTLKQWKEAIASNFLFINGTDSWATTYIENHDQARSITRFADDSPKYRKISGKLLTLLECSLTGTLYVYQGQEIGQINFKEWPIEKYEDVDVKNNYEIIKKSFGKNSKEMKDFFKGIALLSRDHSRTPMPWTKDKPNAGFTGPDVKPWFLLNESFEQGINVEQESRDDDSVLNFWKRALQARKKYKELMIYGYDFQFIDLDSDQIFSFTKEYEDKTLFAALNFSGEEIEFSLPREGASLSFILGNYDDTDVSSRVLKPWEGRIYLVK

SMILES	Ksv (quenching constant) (α-glucosidase [1]; T 300.15 K)	n (number of binding sites) (α-glucosidase [1]; T 300.15 K)	Kq (bimolecular quenching constant) (α-glucosidase [1]; T 300.15 K)	Ksv (quenching constant) (α-glucosidase [1]; T 305.15 K)	n (number of binding sites) (α-glucosidase [1]; T 305.15 K)	Kq (bimolecular quenching constant) (α-glucosidase [1]; T 305.15 K)	Type of inhibition (α-glucosidase [2])	RSQF values, Trp (Δλ = 60 nm) versus Tyr (Δλ = 15 nm) (α-glucosidase [3])	Kd (α-glucosidase [1]; T 300.15 K) [µM]	Kd (α-glucosidase [1]; T 305.15 K) [µM]	Kd (α-glucosidase [1]; T 310.15 K) [µM]	Ksv (quenching constant) (α-glucosidase [1]; T 310.15 K)	n (number of binding sites) (α-glucosidase [1]; T 310.15 K)	Kq (bimolecular quenching constant) (α-glucosidase [1]; T 310.15 K)	Vmax (α-glucosidase [2]; [I] 7.5 μM)	Vmax (α-glucosidase [2]; [I] 15 μM)	Vmax (α-glucosidase [2]; [I] 30 μM)	Vmax (α-glucosidase [2]; [I] 50 μM)	IC50 (α-amylase) [µM]	inhibition of α-amylase (α-amylase)	further results
C[C@H]1O[C@H](O[C@H]2[C@H](O)[C@@H](O)[C@@H](O[C@H]3[C@H](O)[C@@H](O)C(O)O[C@@H]3CO)O[C@@H]2CO)[C@H](O)[C@@H](O)[C@@H]1N[C@H]1C=C(CO)[C@@H](O)[C@H](O)[C@H]1O (some centres unmarked) [Acarbose, acarbose, reference compound]	0.01 ±0.01 104 /M	1.04	0.01 ×10^12 (M·S)-1	0.02 ±0.01 104 /M	0.98	0.02 ×10^12 (M·S)-1	Mixed	very low	–	–	–	–	–	–	–	–	–	–	–	–	Vmax (α-glucosidase [2]; [I] […] μM): 5.92±0.06 ×10-1µM/min; Vmax (α-glucosidase [2]; [I] 500 μM): 6.18±0.04 ×10-1µM/min; Vmax (α-glucosidase [2]; [I] 1000 μM): 5.90±0.03 ×10-1µM/min; Vmax (α-glucosidase [2]; [I] 2000 μM): 2.42±0.06 ×10-1µM/min; Vmax (α-glucosidase [2]; [I] […]): 5.96±0.06 ×10-1µM/min; blood glucose area under the curve (AUC), total glycemic exposure (C57BL/6J mice): significantly reduced
O=C1Nc2ccc(Br)cc2/C1=C\c1nc2ccccc2c(=O)n1-c1ccc(C(=O)O)cc1 [K413]	11.46 ±0.01 104 /M	1.17	–	7.99 ±0.01 104 /M	1.20	7.99 ×10^12 (M·S)-1	Competitive	significantly higher	1.59	1.62	3.94	6.87 ±0.01 104 /M	1.14	6.87 ×10^12 (M·S)-1	11.41±0.04 ×10-1µM/min	11.35±0.08 ×10-1µM/min	10.92±0.06 ×10-1µM/min	10.84±0.07 ×10-1µM/min	> 500	minimal inhibition	Ki (α-glucosidase [2]): 59.7 ± 10.6 µM; IC50 (α-glucosidase [4]): 66.3 ± 7.17 µM; inhibition at 250 µM (α-glucosidase [4]): ~100%
COc1ccc(-c2nn(-c3ccccc3)c(C)c2-c2cc(C#N)c(C#N)cc2O)cc1 [K802]	0.59 ±0.02 104 /M	1.16	0.59 ×10^12 (M·S)-1	0.42 ±0.04 104 /M	0.99	0.42 ×10^12 (M·S)-1	Competitive	significantly higher	2.51	19.6	23.8	0.39 ±0.02 104 /M	0.79	0.39 ×10^12 (M·S)-1	9.17±0.04 ×10-1µM/min	9.83±0.06 ×10-1µM/min	9.35±0.03 ×10-1µM/min	9.62±0.05 ×10-1µM/min	> 500	minimal inhibition	Vmax (α-glucosidase [2]; [I] 70 μM): 9.48±0.02 ×10-1µM/min; IC50 (α-glucosidase [4]): 74.7 ± 4.1 µM; inhibition at 250 µM (α-glucosidase [4]): ~100%
